Common to all, as to format: in vivo
The test system of test [1] is mice. The test is described as follows: Elevated plus maze test (EPM). As for the experimental part: The tests were performed on male white mice of the Albino Swiss strain, whose weight was between 24 and 30 g in Experimental Medicine Center, Medical University of Lublin, Poland. The animals were housed (four/five per cage). Before conducting the experimental tests, the animals were subjected to an adaptation that lasted seven days. This consisted of keeping them in a room with relatively constant conditions: a temperature of 22 ± 1 °C, a humidity of 55 ± 5% and lighting that mimicked the natural day and night rhythm (12 h/12 h). Constant access to food and water was provided. Standard feed—LSM Motycz pelleted feed—and tap water were used. Mice were randomly allocated to study groups. Each group was represented by 8–10 animals, depending on the research schedule. The experiments were performed according to the procedures set out in the regulations for animal experiments: National Institute of Health Guidelines for the Care and Use of Laboratory Animals (8th edition) and to the European Community Council Directive for the Care and Use of Laboratory Animals of 22 September 2010 (2010/63/EU). The study was approved by the Local Ethical Committee in Lublin (number of ethical approvals: 27/2023). Tested compounds: FG‐1, FG‐4, FG‐5, FG‐6, FG‐7, FG‐8, and FG‐18 were finely ground in mortars with the addition of the emulsifier Tween‐80. A suspension was obtained, which was then diluted with aqueous solution of 0.5% methylcellulose (tylose). The mixture was then administered intraperitoneally (i.p.) to the animals 60 min before the start of the experiments. Animals in the control groups received a 0.5% tylose solution. All substances were administered via the same route of administration in appropriate dose and volume of 0.1 mL per 10 g of animal body weight. Prior to the administration of the drug, the animals were weighed, during the interval between tests, they were provided with food, water, and constant living conditions. The EPM test is performed using an apparatus developed by Lister;^[ [44] ^] it consists of two open arms (30 × 5 cm) and two enclosed arms (30 × 5 × 15 cm) and a central platform (5 × 5 cm) it is placed at a height of 45 cm from the floor. The labyrinth was made of Plexiglas. The experiments were conducted in a darkened and quiet room. The central square of the maze was evenly illuminated with a dull red light. In the test, the mouse is observed for 5 min, and the number of entries into the open and closed arms and the time spent in them are recorded. The person carrying out the experiment remains constantly in the same place. Entering an individual arm is considered when the mouse has placed all four limbs outside the central square. The experiment measures: 1) the time spent by the mouse into the open arms of the maze, expressed as a percentage of the total exploration time, 2) the number of entries into the open arms of the maze, expressed as a percentage of the total number of entrances to both types of arms, and 3) the total number of entries into all arms of the maze—as a locomotor activity of the animals. If the mouse spends more time in the open arms than in the closed arms, this indicates an anxiolytic effect of the compounds tested. Exposed arms pose a risk of falling and therefore act as a mild stressor. Anxious mice are more likely to switch between open and enclosed arms and spend more time in enclosed arms than less anxious mice.^[ [11], [17], [44], [45] ^]

For test [2], the system named is mice. The test is described as follows: Forced swim test (FST, Porsolt's test). As for the experimental part: (§1) The tests were performed on male white mice of the Albino Swiss strain, whose weight was between 24 and 30 g in Experimental Medicine Center, Medical University of Lublin, Poland. The animals were housed (four/five per cage). Before conducting the experimental tests, the animals were subjected to an adaptation that lasted seven days. This consisted of keeping them in a room with relatively constant conditions: a temperature of 22 ± 1 °C, a humidity of 55 ± 5% and lighting that mimicked the natural day and night rhythm (12 h/12 h). Constant access to food and water was provided. Standard feed—LSM Motycz pelleted feed—and tap water were used. Mice were randomly allocated to study groups. Each group was represented by 8–10 animals, depending on the research schedule. The experiments were performed according to the procedures set out in the regulations for animal experiments: National Institute of Health Guidelines for the Care and Use of Laboratory Animals (8th edition) and to the European Community Council Directive for the Care and Use of Laboratory Animals of 22 September 2010 (2010/63/EU). The study was approved by the Local Ethical Committee in Lublin (number of ethical approvals: 27/2023). Tested compounds: FG‐1, FG‐4, FG‐5, FG‐6, FG‐7, FG‐8, and FG‐18 were finely ground in mortars with the addition of the emulsifier Tween‐80. A suspension was obtained, which was then diluted with aqueous solution of 0.5% methylcellulose (tylose). The mixture was then administered intraperitoneally (i.p.) to the animals 60 min before the start of the experiments. Animals in the control groups received a 0.5% tylose solution. All substances were administered via the same route of administration in appropriate dose and volume of 0.1 mL per 10 g of animal body weight. Prior to the administration of the drug, the animals were weighed, during the interval between tests, they were provided with food, water, and constant living conditions.
The study was carried out using the test proposed by R. Porsolt.^[ [46] ^] The method is based on the observation of an animal forced to swim in a confined space from which there is no escape. After an initial period of vigorous attempts to get out, the animal finally gives up on escaping. The test consists of immersing the mouse individually in a cylinder (diameter 10 cm, height 25 cm) filled with water (at a temperature of 23–25 °C) to a height of 10 cm for 6 min. In this test, two parameters were measured: immobility time in seconds (s), understood as the state in which the mouse makes only those movements that are necessary to keep the head above water, and the latency to the first immobility (s). Measurements were taken during the last 4 min of the experiment, starting from the 2nd to the 6th minute. At the end of each session, the animals were removed from the cylinders, dried with a towel, and placed near a heater until completely dry. Antidepressants typically show increased latency and decreased immobility in this test.

The subject of test [3] is mice. Nature of the test: Amphetamine‐induced hyperactivity test. The settings on record: 30 mg/kg i.p. 60 min before test, amphetamine 3 mg kg^−1 s.c., 20 min observation. On the procedure: as §1, with “A suspension was obtained, which was then diluted with aqueous solution of 0.5% methylcellulose (tylose). The mixture was then administered intraperitoneally (i.p.) to the animals 60 min before the start of the experiments. Animals in the control groups received a 0.5% tylose solution. All substances were administered via the same route of administration in appropriate dose and volume of 0.1 mL per 10 g of animal body weight. Prior to the administration of the drug, the animals were weighed, during the interval between tests, they were provided with food, water, and constant living conditions.” left out

Test [4] concerns mice. Nature of the test: MK‐801‐induced hyperactivity test. Particulars: 30 mg/kg i.p. 60 min before test, MK‐801 0.3 mg kg^−1 s.c., 20 min observation. On the procedure: as §1, with “conditions. […]” for “conditions.”
Where [5] appears, read: 30 mg kg^−1 i.p. 60 min before test.
Where [6] appears, read: 15 mg kg^−1 i.p. 60 min before test.
Where [7] appears, read: 7.5 mg kg^−1 i.p. 60 min before test.

SMILES strings stand for the structures.

On to `O=C(NCCCN1CCN(c2ccc(C3=NCCS3)cc2)CC1)C1CC2C=CC1C2` (stereo not drawn) [FG‐18, Endo‐ N‐(3‐(4‐(4‐(4,5‐dihydrothiazol‐2‐yl)phenyl)piperazin‐1‐yl)propyl) bicyclo[2.2.1]hept‐5‐ene‐2‐carboxamide], for which the “EPM, percentage of time spent in open arms” value (from here on “EPM, percentage of time spent”) in the test on mice [1] (setting [5]) was “significant increase in time spent in open arms”.

For the compound `O=C1C2C3C=CC(C3)C2C(=O)N1OCCCN1CCN(c2cccc(C3=NCCS3)c2)CC1` (stereo not shown) [FG‐8, 2‐(3‐(4‐(3‐(4,5‐dihydrothiazol‐2‐yl) phenyl) piperazin‐1‐yl) propoxy)‐3a,4,7,7a‐tetrahydro‐1H‐4,7‐methanoisoindole‐1,3(2H)‐dione], in the test on mice [2] (setting [5]), the “FST, latency to first immobility” value is given as “significant increase in latency to first immobility” and the “FST, total duration of immobility” value is “significant decrease in immobility”.

Turning to `O=C(NCCCN1CCN(c2cccc(C3=NCCS3)c2)CC1)c1ccncc1` [FG‐5, N‐(3‐(4‐(3‐(4,5‐dihydrothiazol‐2‐yl) phenyl) piperazin‐1‐yl) propyl) isonicotinamide], the “FST, total duration of immobility” value in the test on mice [2] (setting [6]) and with mice [2] (setting [5]) was “significant decrease in immobility” in each case. Besides, in the test with mice [2] (setting [5]), the “FST, latency to first immobility” value was “significant increase in latency to first immobility”.

For the compound `O=C1C2C3C=CC(C3)C2C(=O)N1OCCCN1CCN(c2ccccc2C2=NCCS2)CC1` (stereo not shown) [FG‐7, 2‐(3‐(4‐(2‐(4,5‐dihydrothiazol‐2‐yl) phenyl) piperazin‐1‐yl) propoxy)‐3a,4,7,7a‐tetrahydro‐1 H‐4,7‐methanoisoindole‐1,3(2 H)‐dione], the “EPM, percentage of time spent” value with mice [1] (setting [6]) is reported as “significant increase in time spent in open arms”. The “EPM, percentage of the open arm entries” value in the test with mice [1] (setting [5]) is “increase in the percentage of open arm entries”.

On to `O=C(NCCCN1CCN(c2ccccc2C2=NCCS2)CC1)c1ccncc1` [FG‐4, N‐(3‐(4‐(2‐(4,5‐dihydrothiazol‐2‐yl) phenyl) piperazin‐1‐yl) propyl) isonicotinamide], for which, in the test with mice [3], the “amphetamine‐induced hyperactivity” value was “significant decrease in amphetamine‐induced hyperactivity”. Besides, the “MK‐801‐induced hyperactivity” value in the test on mice [4] is on record as “significant decrease in MK‐801‐induced hyperactivity”.

For `O=C(NCCCN1CCN(c2ccc(C3=NCCS3)cc2)CC1)c1ccncc1` [FG‐6, N‐(3‐(4‐(4‐(4,5‐dihydrothiazol‐2‐yl) phenyl) piperazin‐1‐yl) propyl) isonicotinamide], the “MK‐801‐induced hyperactivity” value in the test with mice [4] was “significant decrease in MK‐801‐induced hyperactivity”. Moreover, in the test on mice [1] (setting [7]), the “EPM, percentage of the open arm entries” value is “increase in the percentage of open arm entries”. In the test on mice [1] (setting [6]), the “EPM, percentage of the open arm entries” value is listed as “increase in the percentage of open arm entries” and the “EPM, percentage of time spent” value is on record as “significant increase in time spent in open arms”. In the test on mice [2] (setting [7]), the “FST, latency to first immobility” value is listed as “significant increase in latency to first immobility” and the “FST, total duration of immobility” value is listed as “significant decrease in immobility”. In addition, in the test on mice [2] (setting [6]), the “FST, latency to first immobility” value is recorded as “significant increase in latency to first immobility” and the “FST, total duration of immobility” value is reported as “significant decrease in immobility”.

For the compound `O=C(NCCCN1CCN(c2ccccc2C2=NCCS2)CC1)c1ccccn1` [FG‐1, N‐(3‐(4‐(2‐(4,5‐dihydrothiazol‐2‐yl) phenyl) piperazin‐1‐yl) propyl) picolinamide], the “amphetamine‐induced hyperactivity” value in the test on mice [3] is recorded as “significant decrease in amphetamine‐induced hyperactivity”. The “MK‐801‐induced hyperactivity” value in the test on mice [4] is reported as “significant decrease in MK‐801‐induced hyperactivity”. Moreover, in the test on mice [1] (setting [5]), the “EPM, percentage of the open arm entries” value was “increase in the percentage of open arm entries” and the “EPM, percentage of time spent” value was “significant increase in time spent in open arms”. Moreover, the “FST, total duration of immobility” value in the test on mice [2] (setting [6]) was “significant decrease in immobility”. Besides, in the test on mice [2] (setting [5]), the “FST, latency to first immobility” value was “significant increase in latency to first immobility” and the “FST, total duration of immobility” value is “significant decrease in immobility”.

(Values after publication PMC12321279, “Novel 4,5‐Dihydrothiazole‐Phenylpiperazine Derivatives: Synthesis, Docking Studies and Pharmacological Evaluation as Serotonergic Agents” (Chemmedchem, 2025).)
